No end group written: not given here.
Assays:
LLC = test: Lewis lung carcinoma (LLC) tumor model in C57Bl/6J mice; format: in vivo, mouse; conditions: for inhibited LLC (tumor inhibition): peptides s.c. twice a day at 2.8 mg/kg/d, C57B1/6J mice; for tumor volume: LLC, s.c. twice a day 2.8 mg/kg/day, n=5 (FIG. 7)
Description: Control mice were treated with PBS. In these experiments, LLC cells were implanted into the s.c. dorsa of C57B1/6J mice, and systemically treated. Peptides (mP1, mP2, mP5, and mP6) were injected (s.c.) twice a day at a dose of 2.8 mg/kg/d, whereas endostatin and PBS were administered once a day at a dose of 20 mg/kg/d.
(§1) BxPC-3 and LLC cells were grown in cell culture as described above. […] Mice were shaved and the dorsal skin was cleaned with ethanol before tumor cell injection. A suspension of 5×10^6 tumor cells in 0.1 ml RPMI-1640 (for BxPC-3) or DMEM (for LLC) was injected subcutaneously (s.c.) into the dorsa of mice at the proximal midline. BxPC-3 cells were implanted in SCID mice and LLC in C57B1/6J mice.
Animals with Lewis Lung carcinoma (600-800 mm^3 tumors) were euthanized, and the skin overlying the tumor was cleaned with Betadine and ethanol. Tumor tissue was excised under aseptic conditions. A suspension of tumor cells in 0.9% normal saline was made by passage of viable tumor tissue through a sieve and a series of sequentially smaller hypodermic needles of diameter 22- to 30-gauge. The final concentration was adjusted to 1×10^7 cells/ml, and the suspension was placed on ice. The injection of tumor cells was performed as described above.
(§2) The mice were weighed and tumors were measured every 3-5 days in two diameters with a dial-caliper. Volumes were determined using the formula a2×b×0.52 (where a is the shortest and b is the longest diameter). Data is represented as volume of treated tumor over control (T/C). At the completion of each experiment, the mice were euthanized with CO2 asphyxiation. Tumors were fixed in 10% buffered Formalin (Fisher Scientific, Fair Lawn, N.J.) and paraffin-embedded.
(§3) For treatment of tumor-bearing mice, tumor volumes were allowed to grow to approximately 100 mm^3, and mice were randomized. Treatment was performed by single bolus s.c. injections. Peptides were administered twice a day (every 12 hrs). Doses indicated for peptides were corrected for the purity of peptides (approximately 70%). For example, mice injected with 4 mg/kg/d peptide, were actually injected with 2.8 mg/kg/d after correction. The unpaired Student t-test was used for statistical analysis.

[1] = system: vessel density (CD31) of LLC tumors; test: Vessel density (CD31 staining) of LLC tumor sections; format: in vivo, mouse; conditions: peptides 2.8 mg/kg/d s.c. twice a day
Description: To determine the effect on angiogenesis after mP1 treatment, LLC tumors treated with mP1, mP2, and endostatin at equimolar concentration were analyzed for vessel density (CD31). […] In each case, peptides were administered twice a day s.c. and LLC tumor sections from day 13 were formalin-fixed paraffin-embedded and then stained with CD31 (PECAM). FIG. 2C show the determination of vessel density and the Y axis is expressed as %CD31/high power field (hpf).
Tumors were fixed in 10% buffered Formalin overnight at 4° C. The next day, tumors were washed three times in PBS and paraffin-embedded. Sections (5 μm) were permeabilized with 40 μg/ml proteinase K (Roche Diagnostics Corp.) in 0.2 M Tris-HCl buffer (pH 7.6) for 25 minutes at 37° C. and washed with PBS. PECAM (1:250) was incubated at 4° C. overnight. Stainings were amplified using tyramide signal amplification direct and indirect kits (NEN Life Science Products Inc., Boston, Mass.). Sections were photographed at 400× magnification using a NIKON TE300 microscope. Vessel density (average of three fields) was determined by IPLab software. The unpaired Student t-test was used for statistical analysis.

[2] = system: human microvascular endothelial cells (HMVECs); test: VEGF-induced migration of HMVECs, modified Boyden chamber; format: cell-based
Description: Endostatin peptides were tested for anti-endothelial cell migration activity. Inhibition of VEGF-induced migration of human microvascular endothelial cells (HMVECs) was determined using several doses of endostatin peptides (FIG. 5). Human peptides were used because the cells were of human origin and the migration response of the HMVECs was assayed using a modified Boyden chamber. VEGF (5 ng/ml) was used a chemotactic agent and cells were challenged with human endostatin (Entremed; EM-ES), human Fc-Endostatin (nFcES), human P1 (hP1), human P2 (hP2), human P6 (hP6), and human P1-H1/3A (hP1-H1/3A). Total migration per membrane was quantified from the capture images using Scion Image Software (National Institutes of Health) and the unpaired Student T test was used for statistical analysis. […] No significant differences in inhibition between these concentrations were observed. At higher and lower concentrations less or no inhibition was observed. At 500 ng/ml of hP1 no inhibition was observed. Thus, similar to full-length endostatin, there is a U-shaped response to hP1 inhibition of EC migration.
The motility response of HMVEC-d cells was assayed using a modified Boyden chamber. Cells were plated in T75-cm2 flasks at 0.5×10^6 cells per flask and allowed to grow for 48 h (˜70% confluent) prior to the migration assay. To facilitate cell adhesion, the upper membrane of a transwell ([…]; Costar) was coated with fibronectin ([…]; Becton Dickinson, Bedford, Mass.) for 1 h at 37° C. Coated membranes were rinsed with PBS and allowed to air dry immediately before use. Cells were detached by trypsinization, treated with trypsinization neutralization solution (Clonetics), and resuspended at a final concentration of 1×10^6 cells/ml in serum-free endothelial basal medium (EBM; Clonetics) containing 0.1% BSA. Cells (200,000 in 0.2 ml) were then treated with 0.2 ml of EBM/BSA containing endostatin or peptides at the indicated concentrations. Cells were incubated for 20 min. at 37° C. with occasional shaking. Cells (50,000 in 100 μl) were added to the upper chamber of the transwell. EBM or EBM supplemented with VEGF (5 ng/ml) was added to the lower chamber and cells were allowed to migrate toward the bottom chamber for 4 h in a humidified incubator containing 5% CO2. Transwell filters were rinsed once with PBS and fixed and stained using a Diff-Quik staining kit (Baxter) following the manufacturer's protocol. Non-migrated cells were removed from the upper chamber with a cotton swab. Stained filters were cut out of the chamber and mounted onto slides using Permount (Fisher). The number of migrated cells was measured using microscopy (three fields from each membrane were captured using a 40× objective), and images were captured with a CCD camera using SPOT software. Total migration per membrane was quantified from the captured images using Scion Image software (National Institutes of Health). All experiments were run in triplicate. The unpaired Student t-test was used for statistical analysis.

female C57BL/6 mice = test: Estrus cycling by daily vaginal smears; format: in vivo, mouse; conditions: larger experiment, 2.5 mg/kg
Source text: To investigate the effect of the angiogenesis inhibitors used above on estrus cycling, mice from the first two studies underwent daily vaginal smears in the middle of the endometriosis experiment. The stage of the estrus cycle was classified by evaluating the cells present at the cytological staining. Briefly, this was done as follows. In order to synchronize estrus cycling prior to surgery, mice were housed in groups of 5 for a week. After endometriosis surgery, with the intention to prevent the suspension of cycling, all mice were housed in individual cages. In the absence of a male, female mice housed in groups may become anestrus. Starting post surgical week two, estrus cycling was evaluated by cytological analysis of daily vaginal smears over one week's period. Exams were performed each day during the early morning hours. Autoclaved, wetted, blunt toothpicks were used to gently scrape the superficial cell layer of the animal's vagina. Cells were transferred to a drop of Evan's blue in 0.9% saline on a glass slide for staining, sealed under a glass cover slip and examined under a microscope (Carl Zeiss, Thornwood, N.Y.). Subsequently, each slide was analyzed under low magnification (×40 to ×100) by two independent investigators, who were masked for the form of treatment and previous data from every mouse.

[3] = system: human pancreatic tumor cells BxPC-3; test: BxPC-3 human pancreatic tumor model in SCID mice; format: in vivo; conditions: human endostatin peptides s.c. twice a day at 7 mg/kg/d, final measurement at 28 days, n=3
Description: These peptides were initially tested for anti-tumor activity employing the human pancreatic tumor cells BxPC-3 cells, which were implanted in the s.c. dorsa of SCID mice. For systemic treatment, human endostatin peptides, P1-P8, were administered subcutaneously (s.c.) twice a day at 7 mg/kg/d due to the high clearance rate from the mouse circulation. Full-length Fc-Endostatin, hFcES was administered subcutaneously only once per day at a dose of 20 mg/kg/d. PBS was used as a control.
as §1, §2, §3

C57B1/6J mice = test: Corpus luteum formation in ovaries; format: in vivo, mouse; conditions: after 4 weeks of treatment, compared to control animals
Source text: The corpus luteum (CL) is the remnant of the graafian follicle after ovulation consisting mainly of connective tissue, granulosa and theca interna cells. The presence of Corpora lutea in an ovary is indicative of recent ovulation. We therefore examined the ovaries of mP-1 and vehicle treated mice for CL formation. After 4 weeks of treatment of C57B1/6J mice with induced endometriosis with mP-1, ovaries were removed, fixed in formalin and paraffin embedded. Ovaries from twelve, randomly chosen mice (three mice of both groups from the first two experiments) were sectioned (4-6 μm), and four consecutive sections were put on one slide. Every other slide was then stained with hematoxylin and eosin (H/E). The highest number of Corpora lutea per ovary on each slide was recorded, all numbers added and the mean number calculated.

Female SCID mice = conditions: mouse, in vivo
Description: Female SCID mice were injected with human pancreatic tumor cells subcutaneously. When tumors reached a volume of approximately 100 mm^3 endostatin or placebo treatment was initiated and continued until the end of the study. After three days, females were mated.
Human BxPC-3 cells were grown in cells culture as described above. After washing with sterile PBS, cells were trypsinized and briefly re-suspended in RPMI 1640 medium containing 10% fetal calf serum (FCS) and 1% glutamine penicillin streptomycin (GPS) solution. After centrifuging, the cell concentration was adjusted to 50×10^6 cells/ml in additive-free RPMI 1640 medium and kept on ice. Female SCID mice were shaved on the dorsal side and the naked skin was cleaned with ethanol prior to injection. A suspension of 5×10^6 cells/ml in 100 μl was then injected subcutaneously into the dorsa of these mice at about one centimetre left of the midline.
Mice were weighed and tumors were measured every 7 days in two diameters using a dial-caliper. Tumor volumes were calculated using the formula a^2×b×0.52, while a being the shorter and b being the longer diameter. When tumors had reached a volume of approximately 100 mm^2 mice were divided into four groups.
During the first experiment, one group received endostatin (20 mg/kg; n=8) or vehicle (n=8) via subcutaneous osmotic pumps (Durect Corp., Cupertino, Calif.). Pumps were inserted via a small incision and placed into a subcutaneous pocket on the right lateral aspect of the animals' dorsa. The pumps were changed every week for a total of four weeks.
The other group received daily subcutaneous injections of endostatin (100 mg/kg, n=5) or vehicle (n=5) for the same period.
During a second study we repeated the experiment with endostatin in subcutaneous pumps. The other group in this series received the murine N-terminal fragment of endostatin (mP-1) at a dose of 2.5 mg/kg twice daily or PBS (n=5 each).
Three days after initiation of treatment female mice were added to a cage containing a male SCID mouse in a 1:1 ratio. All males had been housed separately three days prior to encountering the females and female bedding had been added to the male cages to enhance the males' libido.
For the following seven days every female was checked for a vaginal mucous plug as a sign of mating. These exams were performed during the early morning hours to optimize the results. Once a mucous plug had been noticed, mating was considered ‘successful’, and the female was not further examined in order to minimize iatrogenic stress.
Over the course of pregnancy the following parameters were assessed: ‘Mating Time’ describing the time between male encounter and the occurrence of a mucous plug; ‘Pregnancy Rate’, measured by ultrasound 15 days after the mucous plug was observed. The number of viable fetus was counted during this procedure; ‘Length of Pregnancy’, as measured from the time of successful mating to delivery; ‘Number of Total and Viable Litter’, counted on the day of birth; ‘Weight of Individual Pup’, by weighing the entire litter on the day of birth and calculating the mean weight.

Q: Which LLC tumor formation (LLC; higher concentration 14 mg/kg/d) does the source give for “MRGIRGA DFQAFQQARA VGLSGTFR (MRGIRGADFQAFQQARAVGLSGTFR; listed as Mus musculus) [mP2]” here?
A: could inhibit LLC tumor formation as well as mP1 at 2.8 mg/kg/d

Q: And the “inhibited LLC (tumor inhibition)” value (LLC)?
A: No or insignificant activity

Q: And the “reduction of vessel density (%CD31/hpf)” value [1]?
A: no effect

Q: “HPTWPQKSVWHGSDPNGRRLTESY (listed as Homo sapiens) [hP6]” was tested. Which “inhibition of EC migration” value ([2]; 200 and 100 ng/ml, VEGF 5 ng/ml) did it give?
A: only inhibited at doses of 100 and 200 ng/ml

Q: What about the “inhibition of EC migration” value ([2]; concentrations lower than 100 ng/ml) of the same substance?
A: no inhibition

Q: With “GSQGQVQPGARIFSFDGRDVLRHPA (listed as Mus musculus) [mP5]” as the substance, how does the “inhibited LLC (tumor inhibition)” value (LLC) read?
A: No or insignificant activity

Q: HPAWPQKSVWHGSDPSGRRLMESY [mP6] was tested. Which “arrest of the estrus cycle” value (female C57BL/6 mice) did it give?
A: Neither mP-1, not the other two peptides, mP-6 and mP-1-H led to an arrest of the estrus cycle

Q: Which “inhibited BxPC-3 (tumor inhibition)” value [3] does the source give for “TFRAFLSSRLQDLYSIVRRADRAAV (listed as Homo sapiens) [hP3]” here?
A: failed to inhibit tumor growth

Q: Which tumor volume (LLC) does the source give for “HTHQDFQPVLHLVAL (listed as Mus musculus) [mP1-15]” here?
A: inhibit tumor volume

Q: ATAQDFQPVLHLVALNTPLSGGMRGIR [mP1-H1/3A] was tested. Which “arrest of the estrus cycle” value (female C57BL/6 mice) did it give?
A: Neither mP-1, not the other two peptides, mP-6 and mP-1-H led to an arrest of the estrus cycle

Q: How did the “arrest of the estrus cycle” value (female C57BL/6 mice) turn out when HTHQDFQPVLHLVALNTPLSGGMRGIR [mP1] was run?
A: Neither mP-1, not the other two peptides, mP-6 and mP-1-H led to an arrest of the estrus cycle

Q: And the “mean number of Corpora lutea in ovaries” value (C57B1/6J mice)?
A: did not reduce the mean number of Corpora lutea

Q: What about the “effect on the offspring” value (Female SCID mice) of the same substance?
A: did not see any negative effect on the offspring

Q: And the length of pregnancy (Female SCID mice)?
A: 20 days

Q: What about the “litter size per delivery” value (Female SCID mice) of the same substance?
A: 7.4±1.3

Q: What about the “mean weight of pups on the day of delivery” value (Female SCID mice) of the same substance?
A: 1.29 g

Q: What about the “pregnancy rate with live births” value (Female SCID mice) of the same substance?
A: All mice receiving mP-1 became pregnant

Q: “HTHQDFQPVLHLVALNTPLS (listed as Mus musculus) [mP1-20]” was tested. Which tumor volume (LLC) did it give?
A: inhibit tumor volume

Q: “GSEGPLKPGARIFSFDGKDVLRHPT (listed as Homo sapiens) [hP5]” was tested. Which “inhibited BxPC-3 (tumor inhibition)” value [3] did it give?
A: 29%

Q: What does the source list for “HSHRDFQPVLHLVALNSPLSGGMRG (listed as Homo sapiens) [hP1]”?
A: inhibited BxPC-3 (tumor inhibition) [3]: 39%; inhibition of EC migration ([2]; 500 ng/ml, VEGF 5 ng/ml): no inhibition; inhibition of EC migration ([2]; 100, 62.5, and 25 ng/ml, VEGF 5 ng/ml): best inhibition

— patent publication US7645735B2, “Anti-angiogenic peptides for treating or preventing endometriosis” (Children's Medical Center Corporation, priority 2003, dated 2010)
